Laboratory results: the NIST ThermoML archive (doi:10.1016/j.tca.2010.08.002)
Where “and” joins values, the source holds several entries; their conditions need not be identical. Identical values can stand only once.

Assay: molar heat capacity at saturation pressure
Conditions: Crystal, Vacuum adiabatic calorimetry

CCCCn1cc[n+](C)c1.O=S(=O)([O-])C(F)(F)F [1-butyl-3-methylimidazolium trifluoromethanesulfonate]
Conditions | molar heat capacity
5.202 K | 1.664 J/K/mol
5.437 K | 1.901 J/K/mol
5.715 K | 2.221 J/K/mol
5.999 K | 2.57 J/K/mol
6.317 K | 2.999 J/K/mol
6.671 K | 3.523 J/K/mol
7.032 K | 4.097 J/K/mol
7.395 K | 4.732 J/K/mol
7.763 K | 5.393 J/K/mol
8.135 K | 6.123 J/K/mol
8.512 K | 6.893 J/K/mol
8.894 K | 7.698 J/K/mol
9.277 K | 8.558 J/K/mol
9.664 K | 9.444 J/K/mol
10.05 K | 10.36 J/K/mol
10.55 K | 11.59 J/K/mol
11.16 K | 13.11 J/K/mol
11.77 K | 14.7 J/K/mol
12.38 K | 16.35 J/K/mol
13 K | 18.04 J/K/mol
13.62 K | 19.77 J/K/mol
14.25 K | 21.58 J/K/mol
14.88 K | 23.41 J/K/mol
15.62 K | 25.59 J/K/mol
16.48 K | 28.21 J/K/mol
17.34 K | 30.75 J/K/mol
18.21 K | 33.27 J/K/mol
19.07 K | 35.79 J/K/mol
19.94 K | 38.35 J/K/mol
21.15 K | 41.92 J/K/mol
22.72 K | 46.46 J/K/mol
24.29 K | 51.02 J/K/mol
25.87 K | 55.46 J/K/mol
27.45 K | 59.71 J/K/mol
28.86 K | 63.39 J/K/mol
30.34 K | 67.25 J/K/mol
32.09 K | 71.61 J/K/mol
34 K | 76.13 J/K/mol
35.92 K | 80.4 J/K/mol
37.84 K | 84.48 J/K/mol
39.76 K | 88.4 J/K/mol
41.78 K | 92.42 J/K/mol
43.9 K | 96.53 J/K/mol
46.01 K | 100.5 J/K/mol
48.13 K | 104.3 J/K/mol
50.25 K | 108 J/K/mol
52.38 K | 111.5 J/K/mol
54.5 K | 114.9 J/K/mol
56.63 K | 118.1 J/K/mol
58.75 K | 121.2 J/K/mol
60.89 K | 124.2 J/K/mol
63.03 K | 127.2 J/K/mol
65.17 K | 130.1 J/K/mol
67.3 K | 133 J/K/mol
69.44 K | 135.8 J/K/mol
71.69 K | 138.7 J/K/mol
74.03 K | 141.6 J/K/mol
76.39 K | 144.5 J/K/mol
78.69 K | 147.6 J/K/mol and 147.7 J/K/mol
78.74 K | 147.4 J/K/mol
80.59 K | 149.7 J/K/mol
80.61 K | 149.7 J/K/mol
81.1 K | 150.1 J/K/mol
82.36 K | 151.6 J/K/mol
82.4 K | 151.6 J/K/mol
83.47 K | 152.9 J/K/mol
84.13 K | 153.6 J/K/mol
84.19 K | 153.7 J/K/mol
85.92 K | 155.7 J/K/mol
86 K | 155.7 J/K/mol
87.73 K | 157.6 J/K/mol
87.81 K | 157.6 J/K/mol
89.54 K | 159.5 J/K/mol
89.64 K | 159.6 J/K/mol
91.35 K | 161.5 J/K/mol
91.48 K | 161.6 J/K/mol
93.18 K | 163.4 J/K/mol
93.33 K | 163.6 J/K/mol
95.02 K | 165.5 J/K/mol
95.19 K | 165.6 J/K/mol
96.87 K | 167.3 J/K/mol
97.05 K | 167.5 J/K/mol
98.72 K | 169.2 J/K/mol
98.92 K | 169.4 J/K/mol
100.59 K | 171.1 J/K/mol
100.8 K | 171.4 J/K/mol
102.64 K | 173.1 J/K/mol
102.7 K | 173.3 J/K/mol
104.6 K | 175.1 J/K/mol
104.89 K | 175.5 J/K/mol
106.5 K | 177 J/K/mol
107.15 K | 177.7 J/K/mol
108.41 K | 178.9 J/K/mol
109.42 K | 179.9 J/K/mol
110.33 K | 180.8 J/K/mol
111.71 K | 182.1 J/K/mol
112.25 K | 182.6 J/K/mol
114.01 K | 184.4 J/K/mol
114.17 K | 184.5 J/K/mol
116.1 K | 186.5 J/K/mol
116.31 K | 186.8 J/K/mol
118.04 K | 189.9 J/K/mol
118.61 K | 190.7 J/K/mol
119.97 K | 192.6 J/K/mol
120.92 K | 192.7 J/K/mol
121.91 K | 193.4 J/K/mol
123.24 K | 193.9 J/K/mol
123.85 K | 194.3 J/K/mol
125.56 K | 195.3 J/K/mol
125.8 K | 195.5 J/K/mol
127.76 K | 196.9 J/K/mol
127.9 K | 197 J/K/mol
129.72 K | 198.4 J/K/mol
130.24 K | 198.8 J/K/mol
131.68 K | 200 J/K/mol
132.58 K | 200.7 J/K/mol
133.65 K | 201.6 J/K/mol
134.93 K | 202.7 J/K/mol
135.63 K | 203.2 J/K/mol
137.28 K | 204.7 J/K/mol
137.6 K | 204.9 J/K/mol
139.58 K | 206.5 J/K/mol
139.64 K | 206.6 J/K/mol
141.56 K | 208.3 J/K/mol
142 K | 208.7 J/K/mol
143.55 K | 210.1 J/K/mol
144.36 K | 210.9 J/K/mol
145.53 K | 211.9 J/K/mol
146.73 K | 213 J/K/mol
147.51 K | 213.7 J/K/mol
149.09 K | 215.2 J/K/mol
149.5 K | 215.5 J/K/mol
151.45 K | 217.4 J/K/mol
151.48 K | 217.4 J/K/mol
153.46 K | 219.3 J/K/mol
153.82 K | 219.6 J/K/mol
155.44 K | 221.2 J/K/mol
156.18 K | 221.9 J/K/mol
157.42 K | 223.1 J/K/mol
158.55 K | 224.2 J/K/mol
159.41 K | 225.1 J/K/mol
160.91 K | 226.5 J/K/mol
161.39 K | 226.9 J/K/mol
163.28 K | 228.8 J/K/mol
163.37 K | 228.9 J/K/mol
165.35 K | 230.9 J/K/mol
165.64 K | 231.1 J/K/mol
167.32 K | 232.8 J/K/mol
168 K | 233.4 J/K/mol
169.3 K | 234.8 J/K/mol
